The values that follow come from article PMC2758911 (Clinical cancer research : an official journal of the …, 2009).

Data set [1] concerns relapsed/refractory multiple myeloma patients.
For the next data set, the system named is QT interval. The conditions noted are these: cited from earlier work.
In data set [2] the test system is relapsed and refractory myeloma patients. Particulars: cited from earlier work.
The nature of data set [3]: Vorinostat serum pharmacokinetics, day 4 of cycle 1. The class given is in vivo, human. Particulars: for Tmax / half-life / AUC(0-inf) / Cmax: human, po.
The mark [4] stands for this setting: single patient with grade 3 event, baseline QTc 394 msec.
[5] abbreviates: vorinostat 400 mg daily, ECG 3 hours after vorinostat.

Each structure is given as a SMILES string.

For the compound `CC(C)C[C@H](NC(=O)[C@H](Cc1ccccc1)NC(=O)c1cnccn1)B(O)O` [bortezomib], in data set [1] (days 1, 4, 8, 11 of 21-day cycle, with vorinostat 400 mg daily for 8 days), the “Bortezomib dose at the MTD of the combination” value came to 1.3 mg/m2. Moreover, the “Patients in whom bortezomib was decreased from 1.3 mg/m2 to 1 mg/m2” value in data set [1] (human, in vivo) came to 8 patients.
As to `Cc1[nH]c2ccccc2c1CCNCc1ccc(/C=C/C(=O)NO)cc1` [panobinostat], in the data set on QT interval, the “QTc prolongation in phase I and/or II studies” value was “have shown evidence of QTc prolongation”.
A word on the Cmax: it is the maximum level reached in the sampled fluid or tissue. One may read the Tmax as the time at which the peak concentration occurs. As a reminder, the half-life is the time needed for the level to fall by half in the phase considered. Usually AUC(0-inf) stands for total exposure, with the tail of the curve extrapolated. The low end stands for less exposure, the high end for more exposure. `O=C(CCCCCCC(=O)Nc1ccccc1)NO` [vorinostat, suberoylanilide hydroxamic acid]: the “Tolerability and disease stabilization” value in data set [2] (heavily pre-treated population) is “favorable tolerability and evidence of disease stabilization”. In addition, in data set [2] (relapsed and refractory myeloma patients), the Single-agent activity result is “failed to establish significant single-agent activity”. Also, in data set [1] (in vivo), the “Patients who required a decrease in vorinostat dose for grade 3 diarrhea” value was 3 patients. Moreover, in data set [1] (oral once daily for 8 days (days 4–11) every 21 days, with bortezomib 1.3 mg/m2 days 1, 4, 8, 11), the “Maximum tolerated dose (MTD) of vorinostat” value turned out to be 400 mg. Besides, in data set [1] (setting [4]), the cQT after vorinostat amounted to 633 ms and the “cQT at 24 hours” value came to 389 ms. In data set [1] (setting [5]), the “Prolongation of QTc grade 1, patients” value amounted to 7 and the “Prolongation of QTc grade 2, patients” value is 2. Further, the “QTc prolongation in phase I and/or II studies” value with QT interval was “have shown evidence of QTc prolongation”. For the same compound, the maximum concentration (Cmax) at 400 mg versus 500 mg in data set [3] (Student t-test, p=0.35) is reported as “not statistically different”. In data set [3] (doses 100–500 mg), the “Dose proportionality of vorinostat pharmacokinetics (AUC)” value is “the increase was greater than proportional” and the “Serum Cmax versus dose” value was “reached a plateau above 400 mg”. The “Dose proportionality of vorinostat pharmacokinetics (AUC)” value in data set [3] (doses 100–500 mg, listed as Vorinostat) is listed as “non-linear”. In data set [3] (serum), the time to peak (Tmax) was in the range of 0.5 to 6 h and the half-life lay within 0.8 to 7.6 h. In data set [3] (serum, 100 mg), the total exposure AUC(0-inf) came to 760 µM·h, the peak concentration (Cmax) was 310 µM, the time of peak concentration (Tmax) was found to be 1.3 h and the half-life was 1.3 h. In data set [3] (serum, 200 mg), the total exposure AUC(0-inf) was 2030 µM·h, the highest level (Cmax) was 650 µM and the time to peak (Tmax) stood at 1.3 h. In addition, in data set [3] (serum, 400 mg), the area under the curve AUC(0-inf) turned out to be 5130 µM·h and the Cmax worked out at 1420 µM. In data set [3] (serum, 500 mg), the AUC(0-inf) came to 8100 µM·h, the peak concentration (Cmax) came to 1330 µM, the Tmax amounted to 3.8 h and the half-life was 4.4 h. Also, in data set [3] (linear regression, p=0.001, CL/F decreased with increasing dose), the “Slope of Cl/F (L/min) versus dose (mg)” value is on record as −0.014. For the same compound, the “t1/2, mean” value in data set [3] (vorinostat 200 mg BID oral (n=3), serum, day 4 cycle 1, with bortezomib) was 2.4 h.
